# Laboratory results published in PMC7367283, “A PIP2 substitute mediates voltage sensor-pore coupling in KCNQ activation” (Communications Biology, 2020).
# Legend:
# [1] = target: NaV1.5 (Homo sapiens, UniProt Q14524); assay: Cut-open oocyte recording of NaV1.5; type: cell-based; conditions: 10 µM CP1
# Source text: (§1) Since CP1 has a similar effect to PIP2 in mediating VSD-pore coupling in KCNQ channels, we tested if CP1 has effects on other ion channels that are also sensitive to PIP2 or are voltage activated and share general structural features of the VSD and the pore with KCNQ. […] On the other hand, NaV1.5 and KV4.2 are voltage-gated ion channels.
# (§2) Fig. 6 Effects of CP1 on other ion channels expressed in Xenopus oocytes. a Currents of Kir1.1, CaV1.2, NaV1.5, hERG, and KV4.2 before and after application of 10 µM CP1, respectively. The voltages for holding, test, and returning pulses were Kir1.1, 0 mV, −100 to +60 mV, 0; CaV1.2, −100 mV, −100 to +60, −100 mV; NaV1.5, −100, −120 to +40 mV, −120 mV; hERG, −80 mV, −90 to +60 mV, −60 mV; KV4.2, −80 mV, −100 mV to +80 mV, −40 mV; HCN4, −30 mV, −30 to −140 mV, −120 mV. b Current–voltage relations of Kir1.1 channel in the absence or presence of 10 µM CP1 (n = 7). c–g G–V relations of indicated channels with and without 10 µM CP1. The ΔV1/2 of G–V relations (mV) are CaV1.2, 3.38 ± 0.71 mV (c); NaV1.5, −2.26 ± 0.95 mV (d); hERG, 6.85 ± 1.81 mV (e); KV 4.2, −2.26 ± 2.88 mV (f); HCN4, 17.13 ± 1.59 mV (g).
# (§3) Complementary DNA (cDNA) encoding human KCNQ1 (UniProtKB/Swiss‐Prot under accession no. P51787), KCNQ2 (O43526), KCNQ3 (O43525), KCNE1 (P15382), Kir1.1 (P48048), hERG (Q12809), KV4.2 (Q63881), NaV1.5 (Q14524), NaV β1 (Q07699), CaV1.2 (Q13936), CaV β1a (Q02641), CaV α2/δ1 (P54289), and HCN4 (Q9Y3Q4) were subcloned into oocyte expression vectors, respectively. Site-directed mutations of the KCNQ1 channel were all produced by overlap extension polymerase chain reaction (PCR) with high-fidelity Pfu polymerase (Stratagene, CA). The presence of the desired mutation was verified by sequencing the PCR-amplified regions. All the primer sequences used in this study are available in Supplementary Table 1. The complementary RNA (cRNA) of all these channels and mutations was transcribed in vitro with the T3, T7, or SP6 polymerase mMessage mMachine kit (Invitrogen, Thermo Fisher Scientific, MO).
# (§4) The use of Xenopus laevis to obtain oocytes was approved by the Washington University Animal Studies Committee (protocol #20190030). Oocytes were manually dispersed and digested with collagenase (0.5 mg/ml, Sigma-Aldrich, Saint Louis, MO) to remove the follicle cell layer. Stage V or VI oocytes were selected and injected with cRNAs (9.2 ng) of channel or mutations. Especially, to characterize IKs, a mix of cRNAs at a molar ratio 4:1 (KCNQ1:KCNE1) was injected. For KCNQ2/KCNQ3, the molar ratio was 1:1 (KCNQ2:KCNQ3). For sodium channels, a 3:1 molar ratio (β1:NaV1.5) and for calcium channels a weight ratio 1:1:1 (β1:α2/δ1:CaV1.2) was injected, respectively. Injected oocytes were incubated in ND96 solution containing (in mM) 96 NaCl, 2 KCl, 1.8 CaCl2, 1 MgCl2, and 5 HEPES, pH 7.6, supplemented with 2.5 mM Na pyruvate and 1% penicillin–streptomycin, at 18 °C for 3–7 days before recording.
# NaV1.5 currents were recorded with a cut-open amplifier (CA-1B, Dagan Corporation) coupled with an A/D converter (Digidata 1440, Molecular Devices). The data were acquired using Clampex software (v10, Molecular Devices). The internal solution was composed of (mM) 105 NMG‐Mes, 10 Na‐Mes, 20 HEPES, and 2 EGTA, pH 7.4. The external solution was composed of (mM) 25 NMG‐Mes, 90 Na‐Mes, 20 HEPES, and 2 Ca‐Mes2, pH 7.4. The ionic currents were recorded using the standard I–V protocol. From a holding potential of −120 mV, cells were stepped to a 100-ms prepulse of −120 mV and then stepped to test potentials ranging from −120 to 60 mV with 20-mV increment, […] a 100-ms postpulse of −120 mV.
# [2] = target: CaV1.2 (Homo sapiens, UniProt Q13936); assay: Two-electrode voltage clamp of CaV1.2 in Xenopus oocytes; type: cell-based; conditions: 10 µM CP1
# Sequence of CaV1.2 (Q13936 whole entry): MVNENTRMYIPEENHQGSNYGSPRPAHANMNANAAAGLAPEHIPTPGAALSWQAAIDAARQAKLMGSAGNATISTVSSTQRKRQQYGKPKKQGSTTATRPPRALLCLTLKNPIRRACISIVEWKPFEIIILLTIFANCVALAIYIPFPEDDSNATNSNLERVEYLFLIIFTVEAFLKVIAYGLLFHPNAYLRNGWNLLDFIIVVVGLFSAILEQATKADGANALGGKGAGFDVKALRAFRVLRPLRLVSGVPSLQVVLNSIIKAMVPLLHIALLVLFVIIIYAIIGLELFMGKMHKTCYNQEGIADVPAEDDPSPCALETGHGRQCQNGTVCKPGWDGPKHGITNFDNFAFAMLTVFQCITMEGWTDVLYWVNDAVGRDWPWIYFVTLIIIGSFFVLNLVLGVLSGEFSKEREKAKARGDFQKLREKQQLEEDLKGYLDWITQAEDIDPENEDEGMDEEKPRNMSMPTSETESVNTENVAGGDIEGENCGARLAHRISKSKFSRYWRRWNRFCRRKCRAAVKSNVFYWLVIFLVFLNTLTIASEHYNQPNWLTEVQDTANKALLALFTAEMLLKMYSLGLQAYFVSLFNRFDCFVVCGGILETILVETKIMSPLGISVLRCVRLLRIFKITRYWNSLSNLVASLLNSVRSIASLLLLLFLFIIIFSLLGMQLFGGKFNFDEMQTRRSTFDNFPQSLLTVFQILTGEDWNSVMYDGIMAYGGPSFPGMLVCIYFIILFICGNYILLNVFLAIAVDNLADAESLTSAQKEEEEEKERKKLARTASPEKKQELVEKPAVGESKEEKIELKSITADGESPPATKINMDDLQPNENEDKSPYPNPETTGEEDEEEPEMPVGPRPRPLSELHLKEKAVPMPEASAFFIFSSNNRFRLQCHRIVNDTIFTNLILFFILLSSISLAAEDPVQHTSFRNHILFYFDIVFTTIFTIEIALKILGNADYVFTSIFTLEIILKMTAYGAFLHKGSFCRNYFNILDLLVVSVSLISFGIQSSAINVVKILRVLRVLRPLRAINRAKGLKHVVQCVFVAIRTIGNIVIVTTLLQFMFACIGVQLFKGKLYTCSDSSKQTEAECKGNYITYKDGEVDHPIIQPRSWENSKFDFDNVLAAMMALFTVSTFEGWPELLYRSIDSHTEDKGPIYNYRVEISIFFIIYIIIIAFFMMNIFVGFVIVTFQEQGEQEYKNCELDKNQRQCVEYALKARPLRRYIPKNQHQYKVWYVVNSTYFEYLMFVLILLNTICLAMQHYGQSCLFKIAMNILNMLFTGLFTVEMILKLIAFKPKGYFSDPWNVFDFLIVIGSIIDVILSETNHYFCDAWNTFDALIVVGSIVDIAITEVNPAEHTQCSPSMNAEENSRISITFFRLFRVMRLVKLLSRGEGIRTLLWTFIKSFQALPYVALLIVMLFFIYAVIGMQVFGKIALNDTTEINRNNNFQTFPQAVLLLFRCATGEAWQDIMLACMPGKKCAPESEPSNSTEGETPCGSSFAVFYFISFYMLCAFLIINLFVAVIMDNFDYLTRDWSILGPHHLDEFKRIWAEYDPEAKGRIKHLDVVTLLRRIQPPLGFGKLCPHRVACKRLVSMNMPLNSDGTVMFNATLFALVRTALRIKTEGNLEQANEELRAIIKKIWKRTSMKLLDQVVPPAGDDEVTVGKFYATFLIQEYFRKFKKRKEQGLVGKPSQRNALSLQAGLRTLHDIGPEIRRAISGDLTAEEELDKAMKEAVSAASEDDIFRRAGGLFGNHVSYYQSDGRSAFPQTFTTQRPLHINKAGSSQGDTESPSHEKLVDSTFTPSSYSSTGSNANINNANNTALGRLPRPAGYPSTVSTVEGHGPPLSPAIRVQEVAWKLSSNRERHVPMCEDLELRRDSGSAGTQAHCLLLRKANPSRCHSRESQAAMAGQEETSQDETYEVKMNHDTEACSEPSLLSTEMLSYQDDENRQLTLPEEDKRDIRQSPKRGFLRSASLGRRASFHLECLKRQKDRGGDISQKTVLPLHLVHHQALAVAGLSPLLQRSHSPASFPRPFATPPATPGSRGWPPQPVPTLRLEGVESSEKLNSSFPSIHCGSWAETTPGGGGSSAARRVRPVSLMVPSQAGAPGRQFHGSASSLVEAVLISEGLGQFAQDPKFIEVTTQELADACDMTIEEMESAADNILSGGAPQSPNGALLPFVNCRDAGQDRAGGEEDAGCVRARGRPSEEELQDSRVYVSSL
# Sequence of CaV1.2 (Q02641 1-523 isoform Q02641-2 partner): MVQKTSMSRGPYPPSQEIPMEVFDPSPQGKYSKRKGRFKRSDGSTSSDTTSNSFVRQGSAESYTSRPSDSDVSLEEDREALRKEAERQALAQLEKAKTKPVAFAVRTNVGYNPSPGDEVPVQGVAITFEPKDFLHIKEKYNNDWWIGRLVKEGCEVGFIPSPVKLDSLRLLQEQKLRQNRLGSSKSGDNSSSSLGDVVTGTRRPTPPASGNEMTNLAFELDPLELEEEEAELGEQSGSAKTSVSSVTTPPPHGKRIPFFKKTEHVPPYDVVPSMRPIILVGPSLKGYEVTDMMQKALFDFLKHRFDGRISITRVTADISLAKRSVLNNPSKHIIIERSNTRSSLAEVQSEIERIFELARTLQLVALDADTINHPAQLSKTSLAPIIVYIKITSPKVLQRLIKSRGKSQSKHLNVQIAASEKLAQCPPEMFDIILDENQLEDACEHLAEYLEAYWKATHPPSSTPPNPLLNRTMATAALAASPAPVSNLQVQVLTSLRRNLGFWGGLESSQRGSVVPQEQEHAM
# Sequence of CaV1.2 (P54289 25-956 partner limits assumed): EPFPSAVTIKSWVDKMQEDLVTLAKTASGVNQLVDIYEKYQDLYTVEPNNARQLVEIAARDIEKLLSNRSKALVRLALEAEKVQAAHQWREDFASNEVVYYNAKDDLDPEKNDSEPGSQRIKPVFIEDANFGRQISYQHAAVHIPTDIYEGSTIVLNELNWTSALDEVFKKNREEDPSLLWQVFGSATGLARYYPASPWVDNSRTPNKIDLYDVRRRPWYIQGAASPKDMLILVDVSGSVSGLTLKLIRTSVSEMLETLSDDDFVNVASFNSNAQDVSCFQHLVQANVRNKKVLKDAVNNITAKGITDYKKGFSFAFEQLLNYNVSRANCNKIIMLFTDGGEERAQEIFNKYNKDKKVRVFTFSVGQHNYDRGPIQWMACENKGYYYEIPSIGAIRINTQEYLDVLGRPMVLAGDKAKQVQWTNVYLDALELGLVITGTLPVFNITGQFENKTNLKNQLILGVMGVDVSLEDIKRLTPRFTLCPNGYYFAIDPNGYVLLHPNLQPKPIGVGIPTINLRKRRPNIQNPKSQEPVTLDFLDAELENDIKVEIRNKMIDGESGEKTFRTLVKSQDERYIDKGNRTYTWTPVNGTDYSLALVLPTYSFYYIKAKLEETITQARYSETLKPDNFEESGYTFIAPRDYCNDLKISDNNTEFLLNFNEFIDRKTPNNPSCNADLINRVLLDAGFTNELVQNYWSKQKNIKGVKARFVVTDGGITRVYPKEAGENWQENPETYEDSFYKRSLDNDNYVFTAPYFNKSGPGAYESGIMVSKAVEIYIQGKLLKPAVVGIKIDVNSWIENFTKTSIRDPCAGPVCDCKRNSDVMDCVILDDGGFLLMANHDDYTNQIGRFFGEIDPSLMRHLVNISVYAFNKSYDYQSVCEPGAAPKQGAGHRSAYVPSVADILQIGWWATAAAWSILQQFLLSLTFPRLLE
# Sequence of CaV1.2 (P54289 957-1103 partner limits assumed): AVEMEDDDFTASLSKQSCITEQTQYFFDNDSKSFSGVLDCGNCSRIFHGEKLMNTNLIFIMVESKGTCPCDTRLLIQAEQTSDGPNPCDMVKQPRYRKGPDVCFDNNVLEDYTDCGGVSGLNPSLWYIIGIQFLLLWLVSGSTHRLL
# Source text: as §1, §2, §3, §4
# The whole-oocyte ionic currents were recorded with a GeneClamp 500B amplifier (Axon Instruments, CA) or iTEV90 amplifier (HEKA, Germany) and then sampled at 1 kHz and low-pass-filtered at 2 kHz. The Patchmaster software (HEKA, Germany) was used to acquire data. The Kir1.1 current was recorded with a high K^+ bath solution containing (in mM) 96 KCl, 4 NaCl, 1 CaCl2, 2 MgCl2, and 10 HEPES, pH 7.3–7.4. The HCN4 current was recorded in ND66 solution containing (in mM) 66 NaCl, 32 KCl, 1.8 CaCl2, 1 MgCl2, and 5 HEPES, pH 7.6. All the other potassium channels were recorded in ND96 solution. The currents of CaV1.2 channel were recorded in 40 mM Ba^2+ bath solution containing (in mM) 40 Ba(OH)2, 50 TEA-OH, 2 KOH, and 5 HEPES, adjusted to pH 7.4 with methanesulfonic acid. CP1 (DISODIUM 5-BROMO-2-[9-CHLORO-3-(SULFONATOOXY) NAPHTHO [1,2-B] THIEN-2-YL]-1H-INDOL-3-YL SULFATE, Sigma-Aldrich, MO) and Chromanol 293B (Sigma-Aldrich, MO) were dissolved in bath solutions. All the chemicals were purchased from Sigma-Aldrich. […]
structure (smiles),measurement,setting,value
"O=S(=O)([O-])Oc1c(-c2sc3c(ccc4cccc(Cl)c43)c2OS(=O)(=O)[O-])[nH]c2ccc(Br)cc12.[Na+].[Na+] [CP1, DISODIUM 5-BROMO-2-[9-CHLORO-3-(SULFONATOOXY) NAPHTHO [1,2-B] THIEN-2-YL]-1H-INDOL-3-YL SULFATE]",ΔV1/2 of G–V relations,[1],−2.26 ± 0.95 mV
same,G/Gmax Mean (Fig. 6d),[1]; voltage 0 mV,0.9380
same,G/Gmax Mean (Fig. 6d),[1]; voltage 20 mV,1.0000
same,G/Gmax Mean (Fig. 6d),[1]; voltage -20 mV,0.9095
same,G/Gmax Mean (Fig. 6d),[1]; voltage -40 mV,0.8354
same,G/Gmax Mean (Fig. 6d),[1]; voltage -60 mV,0.4098
same,G/Gmax Mean (Fig. 6d),[1]; voltage -80 mV,0.0040
same,G/Gmax Mean (Fig. 6d),[1]; voltage -100 mV,0.0015
same,G/Gmax Mean (Fig. 6d),[1]; voltage -120 mV,0.0016
same,ΔV1/2 of G–V relations,[2],3.38 ± 0.71 mV
same,G/Gmax Mean (Fig. 6c),[2]; voltage 0 mV,0.1903
same,G/Gmax Mean (Fig. 6c),[2]; voltage 10 mV,0.4214
same,G/Gmax Mean (Fig. 6c),[2]; voltage 20 mV,0.7222
same,G/Gmax Mean (Fig. 6c),[2]; voltage 30 mV,0.9242
same,G/Gmax Mean (Fig. 6c),[2]; voltage 40 mV,1.0000
same,G/Gmax Mean (Fig. 6c),[2]; voltage -10 mV,0.0690
same,G/Gmax Mean (Fig. 6c),[2]; voltage -20 mV,0.0228
same,G/Gmax Mean (Fig. 6c),[2]; voltage -30 mV,0.0102
same,G/Gmax Mean (Fig. 6c),[2]; voltage -40 mV,0.0076
same,G/Gmax Mean (Fig. 6c),[2]; voltage -50 mV,0.0080
same,G/Gmax Mean (Fig. 6c),[2]; voltage -60 mV,0.0090
same,G/Gmax Mean (Fig. 6c),[2]; voltage -70 mV,0.0102
same,G/Gmax Mean (Fig. 6c),[2]; voltage -80 mV,0.0108
same,G/Gmax Mean (Fig. 6c),[2]; voltage -90 mV,0.0176
same,G/Gmax Mean (Fig. 6c),[2]; voltage -100 mV,0.0169
